According to patent US20200222474A1, “COMPOSITIONS AND METHODS FOR INCREASING PHYTOCHEMICAL BIOAVAILABLITY AND BIOACTIVITY” (North Carolina State University, priority 2017, published 2020):

System: L. acidophilus NCFM
Assay: RNA-seq transcriptional analysis of L. acidophilus NCFM growing on plant glycosides
Format: cell-based, Lactobacillus acidophilus
[1] = LBA1955 Transcription regulator family protein, COG K
[2] = gene LBA0046 (Hypothetical protein)
[3] = gene LBA0149 (Putative nucleotide-binding protein)
[4] = gene LBA0263 (Hypothetical protein)
[5] = gene LBA0282 (Hypothetical protein)
[6] = gene LBA0327 (Replication protein)
[7] = gene LBA0328 (Hypothetical protein)
[8] = gene LBA0330 (Hypothetical protein)
[9] = gene LBA0457 (Hypothetical protein)
[10] = gene LBA0485 (Hypothetical protein)
[11] = gene LBA0486 (Hypothetical protein)
[12] = gene LBA0487 (Hypothetical protein.)
[13] = gene LBA0492 (Hypothetical protein)
[14] = gene LBA0541 (Cadmium-transporting ATPase)
[15] = gene LBA0542 (Putative heavy-metal-transporting alpase)
[16] = gene LBA0543 (Hypothetical protein)
[17] = gene LBA0544 (Transcriptional regulator)
[18] = gene LBA0555 (Myosin-crossreactive antigen)
[19] = gene LBA0564 (HAD family hydrolase)
[20] = gene LBA0574 (ABC multi drug exporter)
[21] = gene LBA0575 (ABC multi drug exporter)
[22] = gene LBA0604 (Immunity protein)
[23] = gene LBA0605 (Putative hydrolase)
[24] = gene LBA0608 (Hypothetical protein)
[25] = gene LBA0631 (Hypothetical protein)
[26] = gene LBA0649 (Myosin-crossreactive antigen)
[27] = gene LBA0728 (Hypothetical protein LBA0728)
[28] = gene LBA1025 (Aldo/keto reductase family oxidoreductase)
[29] = gene LBA1026 (Aldo/keto reduetase family oxidoreductase)
[30] = gene LBA1206 (Hypothetical protein)
[31] = gene LBA1401 (Peroxidase (Npx))
[32] = gene LBA1435 (Hypothetical protein)
[33] = gene LBA1455 (Putative surface layer protein)
[34] = gene LBA1656 (Hypothetical protein)
[35] = gene LBA1675 (Hypothetical protein)
[36] = gene LBA1676 (ATP-dependent helicase)
[37] = gene LBA1683 (Putative magnesium-transporting atpase)
[38] = gene LBA1704 (N-Acetylmuramic acid-6-phosphate etherase)
[39] = gene LBA1740 (Hypothetical protein)
[40] = gene LBA1752 (Hypothetical protein)
[41] = gene LBA1769 (Hypothetical protein)
[42] = gene LBA1793 (Hypothetical protein)
[43] = gene LBA1869 (Beta-phosphoglueomutase)
[44] = gene LBA1895 (Hypothetical protein)

OC[C@H]1O[C@@H](O[C@H]2[C@H](O)[C@@H](O)[C@@H](O)O[C@@H]2CO)[C@H](O)[C@@H](O)[C@H]1O [Lac]
Log2 differential normalized TPM ratio compared to glucose (LBA1878 Glycerol kinase, COG C): 0
Transcripts per million (rpm) (LBA1878 Glycerol kinase, COG C): 8.9 rpm
Log2 differential normalized TPM ratio compared to glucose [1]: −0.4
Transcripts per million (rpm) [1]: 403.9 rpm
Log2 differential normalized TPM ratio compared to glucose [2]: 0.7
Transcripts per million (rpm) [2]: 506.3 rpm
Log2 differential normalized TPM ratio compared to glucose [3]: 0.8
Transcripts per million (rpm) [3]: 850.2 rpm
Log2 differential normalized TPM ratio compared to glucose [4]: 0.7
Transcripts per million (rpm) [4]: 27 rpm
Log2 differential normalized TPM ratio compared to glucose [5]: 0.6
Transcripts per million (rpm) [5]: 32.7 rpm
Log2 differential normalized TPM ratio compared to glucose [6]: 0.2
Transcripts per million (rpm) [6]: 9.5 rpm
Log2 differential normalized TPM ratio compared to glucose [7]: −0.1
Transcripts per million (rpm) [7]: 13.2 rpm
Log2 differential normalized TPM ratio compared to glucose [8]: 0.3
Transcripts per million (rpm) [8]: 26.6 rpm
Log2 differential normalized TPM ratio compared to glucose [9]: 1
Transcripts per million (rpm) [9]: 977.4 rpm
Log2 differential normalized TPM ratio compared to glucose [10]: 2.4
Transcripts per million (rpm) [10]: 1078 rpm
Log2 differential normalized TPM ratio compared to glucose [11]: 2.8
Transcripts per million (rpm) [11]: 1593.4 rpm
Log2 differential normalized TPM ratio compared to glucose [12]: 1.3
Transcripts per million (rpm) [12]: 82.6 rpm
Log2 differential normalized TPM ratio compared to glucose [13]: 2.4
Transcripts per million (rpm) [13]: 44.2 rpm
Log2 differential normalized TPM ratio compared to glucose [14]: 2
Transcripts per million (rpm) [14]: 167.4 rpm
Log2 differential normalized TPM ratio compared to glucose [15]: 2.2
Transcripts per million (rpm) [15]: 409.6 rpm
Log2 differential normalized TPM ratio compared to glucose [16]: 2.3
Transcripts per million (rpm) [16]: 345.9 rpm
Log2 differential normalized TPM ratio compared to glucose [17]: 2
Transcripts per million (rpm) [17]: 416.6 rpm
Log2 differential normalized TPM ratio compared to glucose [18]: 1.9
Transcripts per million (rpm) [18]: 165.8 rpm
Log2 differential normalized TPM ratio compared to glucose [19]: 0.5
Transcripts per million (rpm) [19]: 1.5 rpm
Log2 differential normalized TPM ratio compared to glucose [20]: 0.3
Transcripts per million (rpm) [20]: 109.5 rpm
Log2 differential normalized TPM ratio compared to glucose [21]: 0.2
Transcripts per million (rpm) [21]: 93 rpm
Log2 differential normalized TPM ratio compared to glucose [22]: 0.5
Transcripts per million (rpm) [22]: 20.8 rpm
Log2 differential normalized TPM ratio compared to glucose [23]: 1
Transcripts per million (rpm) [23]: 5.5 rpm
Log2 differential normalized TPM ratio compared to glucose [24]: 1.1
Transcripts per million (rpm) [24]: 75.1 rpm
Log2 differential normalized TPM ratio compared to glucose [25]: 3.1
Transcripts per million (rpm) [25]: 10677.4 rpm
Log2 differential normalized TPM ratio compared to glucose [26]: 0.7
Transcripts per million (rpm) [26]: 65.3 rpm
Log2 differential normalized TPM ratio compared to glucose [27]: 1.8
Transcripts per million (rpm) [27]: 8.5 rpm
Transcripts per million (rpm) (gene LBA0802 (Hypothetical protein)): 40.6 rpm
Log2 differential normalized TPM ratio compared to glucose (gene LBA0861 (Polyferredoxin)): 0.5
Transcripts per million (rpm) (gene LBA0861 (Polyferredoxin)): 272.1 rpm
Log2 differential normalized TPM ratio compared to glucose (gene LBA1023 (Oxidoreductase)): 0.3
Transcripts per million (rpm) (gene LBA1023 (Oxidoreductase)): 213.6 rpm
Log2 differential normalized TPM ratio compared to glucose [28]: 0
Transcripts per million (rpm) [28]: 31.7 rpm
Log2 differential normalized TPM ratio compared to glucose [29]: 0.4
Transcripts per million (rpm) [29]: 43.3 rpm
Log2 differential normalized TPM ratio compared to glucose (gene LBA1027 (Oxidoreductase)): 1.5
Transcripts per million (rpm) (gene LBA1027 (Oxidoreductase)): 1733.7 rpm
Log2 differential normalized TPM ratio compared to glucose [30]: 1.2
Transcripts per million (rpm) [30]: 302.8 rpm
Log2 differential normalized TPM ratio compared to glucose [31]: 2.1
Transcripts per million (rpm) [31]: 294.6 rpm
Log2 differential normalized TPM ratio compared to glucose [32]: 3.7
Transcripts per million (rpm) [32]: 57.4 rpm
Log2 differential normalized TPM ratio compared to glucose [33]: 1.6
Transcripts per million (rpm) [33]: 53.4 rpm
Log2 differential normalized TPM ratio compared to glucose (gene LBA1469 (UDP-glucose 4-epimerase)): 5
Log2 differential normalized TPM ratio compared to glucose [34]: 0.6
Transcripts per million (rpm) [34]: 30.6 rpm
Log2 differential normalized TPM ratio compared to glucose [35]: 1.4
Transcripts per million (rpm) [35]: 1127.6 rpm
Log2 differential normalized TPM ratio compared to glucose [36]: 1.2
Transcripts per million (rpm) [36]: 734.7 rpm
Log2 differential normalized TPM ratio compared to glucose [37]: −0.2
Transcripts per million (rpm) [37]: 14 rpm
Log2 differential normalized TPM ratio compared to glucose [38]: 0.6
Transcripts per million (rpm) [38]: 10.7 rpm
Log2 differential normalized TPM ratio compared to glucose [39]: 0.8
Transcripts per million (rpm) [39]: 31.5 rpm
Log2 differential normalized TPM ratio compared to glucose [40]: 0.8
Transcripts per million (rpm) [40]: 15.3 rpm
Log2 differential normalized TPM ratio compared to glucose [41]: 1.9
Transcripts per million (rpm) [41]: 5636.3 rpm
Log2 differential normalized TPM ratio compared to glucose [42]: 2.8
Transcripts per million (rpm) [42]: 117.6 rpm
Log2 differential normalized TPM ratio compared to glucose (gene LBA1796 (ABC exporter)): 2.5
Transcripts per million (rpm) (gene LBA1796 (ABC exporter)): 52.4 rpm
Log2 differential normalized TPM ratio compared to glucose [43]: 2.4
Transcripts per million (rpm) [43]: 43.9 rpm
Log2 differential normalized TPM ratio compared to glucose [44]: 0.2
Transcripts per million (rpm) [44]: 31.9 rpm
